US11179346B2, “Rupatadine-containing patch” (TEIKOKU SEIYAKU CO., LTD., priority 2017, dated 2021)

Columns and labels:
[1] = Degree of solubility of rupatadine base in acrylic adhesive (gravimetric method, presence or absence of crystal); assay type: physicochemical; conditions: in acrylic adhesive (OH group), 100 μm plaster, crystal observed by microscope
Protocol: For comparison, the degree of solubility of the rupatadine base in an acrylic adhesive as an adhesive base was also investigated.
The degree of solubility of the rupatadine base in the acrylic adhesive was tested by a gravimetric method.
To 1 g (solid content) of the acrylic adhesive, the rupatadine base was added, and the mixture was stirred and degassed by ultrasonic wave.
The adhesive solution was applied so as to have a thickness of 100 μm, and dried. A plaster was observed by a microscope (manufactured by KEYENCE CORPORATION).
The degree of solubility was determined by the presence or absence of crystal.

[2] = Degree of solubility of rupatadine free base in each plaster ingredient (HPLC method); assay type: physicochemical
From the text: Test Example 1: Investigation of Degree of Solubility of Rupatadine Free Base in Each Ingredient
The degree of solubility of a rupatadine free base (sometimes also referred to as “rupatadine base”) as an active ingredient in each plaster ingredient was investigated.
Levulinic acid as a solubilizer, oleyl oleate and isopropyl myristate (IPM) as a softener, and lauromacrogol (BL-4,2: polyoxyethylene lauryl ether) as a surfactant were selected. The degree of solubility of the rupatadine base in each ingredient was investigated.
To 5 mL of each of levulinic acid, oleyl oleate, isopropyl myristate (IPM), and lauromacrogol (BL-4,2), an excessive amount of the rupatadine base was added and stirred. The mixture was filtered through a 0.45-μm membrane filter, to remove an undissolved substance. To 200 μL of the filtrate, methanol was added using a measuring flask to adjust the volume to a desired volume. The mixture was measured by HPLC.
A rupatadine concentration was measured by an external calibration curve method, and the degree of solubility was calculated by specific gravity conversion.

SMILES: Cc1cncc(CN2CCC(=C3c4ccc(Cl)cc4CCc4cccnc43)CC2)c1 [rupatadine base, 8-chloro-11-[1-[(5-methyl-3-pyridinyl)methyl]-piperidin-4-ylidene]-6,11-dihydro-5H-benzo[5,6]cyclohepta[1,2-b]pyridine]
- Solubility (w/w %) [1]: ≤15 to 16< w/w %
- Solubility (w/w %) ([2]; in isopropyl myristate (softener)): 2 w/w %
- Solubility (w/w %) ([2]; in lauromacrogol (BL-4,2) (surfactant)): 4 w/w %
- Solubility (w/w %) ([2]; in levulinic acid (solubilizer)): 29 w/w %
- Solubility (w/w %) ([2]; in oleyl oleate (softener)): 2 w/w %
